Experimental data as given in patent publication US6894075B2, “4′-demethyl-4′-O-substituted-1-deoxypodophyllotoxin derivative and geometric isomer thereof, process for the preparation thereof and anti-cancer composition comprising the same” (priority 2000, dated 2005).
Like-named read-outs stand apart in the source and are kept apart here.

Assays:
A549 cell = test: Cytotoxicity test (SRB method) for A549 cells; assay type: cell-based, human; conditions: for ED50(mg/mL) for A549: Table 2; for cytotoxicity compared with DPT: A549, in words
Text: (§1) Human lung carcinomas A549 and […] were used for determining cytotoxicity of the compounds of the present invention according to the Sulfrhodamine-B (SRB) method which was developed by NCI in 1989 in order to determine in vitro anticancer activity of drugs.
(§2) Cells to be used in the experiment were separated from a surface using 0.5% Trypsin-EDTA solution and suspended in a density of 5×10^4 cell/ml therein. The cell suspension was introduced into a 96-well plate in an amount of 180/well and incubated for 24 hours in a 5% CO2 incubator of 37° C. Samples were dissolved in dimethylsulfoxide and then diluted by water distilled in advance for three times just before the experiment. Forty-one (41) samples were prepared into 4 types of final concentrations, i.e., 0.1, 0.03, 0.01 and 0.003 mg per ml of the medium. The diluted sample solutions were added to the 96-well plate in the amount of 20 μl/well and incubated for 48 hours in a CO2 incubator of 37° C. At the time of adding the samples, Tz (Time zero) plate was taken. The medium was removed from the Tz plate and each of the plates after incubation were completed. Ten (10)% […] (TCA) was added in the amount of […], and allowed to stand for 1 hour at 4° C. to fix the cells on the bottom surface of the plate. After the cells were fixed, the plate was washed five to six times with water to completely remove the remaining TCA solution and then dried at room temperature to completely remove the moisture. To the fully dried plate was introduced a dye solution in the amount of […] in which 0.4% SRB was dissolved in 1% acetic acid solution. […] After the dyeing process, the plate was dried again at room temperature. 100 ml of 10 mM Tris solution was added thereto in order to dissolve the dye, and then O.D. (optical density) was determined by microplate reader at 520 nm.
(§3) ED50 values for cancer cells were calculated as follows. The amount of SRB protein was analyzed at the time when incubation started by the addition of the sample. This amount was named time zero (Tz). The O.D. value obtained from a group which was not treated by the sample was named Control group (C) and the O.D. value obtained from a group which was treated by the sample was named Test group (T).
(§4) The degree of cytotoxicity of the compounds was calculated from Tz, C and T values according to the following equation.
(§5) That is, in the case of Tz≧T, the degree was calculated by
(§6) (T−Tz)/(C−Tz)×100(%), and
(§7) • in the case of Tz<T, the degree was calculated by […].
(§8) From the values thus obtained, ED50 value which is defined as the concentration at which growth of the cancer cell is inhibited by 50% was calculated using the regression function of Excel program.

SK-MEL-2 cell = test: Cytotoxicity test (SRB method) for SK-MEL-2 cells; assay type: cell-based, human; conditions: SK-MEL-2, SRB, 48 hours incubation
Text: as §1, §2, §3, §4, §5, §6, §7, §8

[1] = A549 human lung cancer cell, SRB, 48 hours incubation, read-out: ED50(nM) for A549
[2] = A549, SRB, Table 2, unit printed in the cell, read-out: ED50 for A549, cells marked

SMILES	EC50 (A549 cell; [1])	ED50(mg/mL) for A549 (A549 cell; A549, SRB, 48 hours incubation)	ED50(mg/mL) for SK-MEL-2 (SK-MEL-2 cell)	other results
COc1cc(C2c3cc4c(cc3CC3COC(=O)C32)OCO4)cc(OC)c1OC(=O)NC(=O)CCl (stereo not shown) [Compound 1b-6, 4′-demethyl-4′-O-chloroacetylcarbamoyl-1-deoxypodophyllotoxin]	80.3 nM	–	–	–
C=CCNC(=O)Oc1c(OC)cc(C2c3cc4c(cc3CC3COC(=O)C32)OCO4)cc1OC (stereo not shown) [Compound 1b-7, 4′-demethyl-4′-O-allylcarbamoyl-1-deoxypodophyllotoxin]	90.5 nM	–	–	–
CCNC(=O)Oc1c(OC)cc(C2c3cc4c(cc3CC3COC(=O)C32)OCO4)cc1OC (stereo not shown) [Compound 1b-1, 4′-demethyl-4′-O-ethylcarbamoyl-1-deoxypodophyllotoxin]	132 nM	–	–	–
COc1cc(C2c3cc4c(cc3CC3COC(=O)C32)OCO4)cc(OC)c1OC(=O)CCCCCCCCCCCCC(=O)O (stereo not shown) [Compound 1c-37, 4′-demethyl-4′-O-(13′-carboxy-tridecanoyl)-1-deoxypodophyllotoxin]	–	0.019 mg/mL	0.070 mg/mL	–
COc1cc(C2c3cc4c(cc3CC3COC(=O)C32)OCO4)cc(OC)c1OC(=O)CN (stereo not shown) [Compound 1a-4, 4′-demethyl-4′-O-glycinoyl-1-deoxypodophyllotoxin]	102 nM	–	–	–
COc1cc(C2c3cc4c(cc3CC3COC(=O)C32)OCO4)cc(OC)c1OC(=O)C(N)CO (stereo not shown) [Compound 1a-5, 4′-demethyl-4′-O-serinoyl-1-deoxypodophyllotoxin]	55 nM	–	–	cytotoxicity compared with DPT (A549 cell): stronger cytotoxicity than DPT
COc1cc(C2c3cc4c(cc3CC3COC(=O)C32)OCO4)cc(OC)c1OC(=O)C(N)C(C)C (stereo not shown) [Compound 1a-3, 4′-demethyl-4′-O-valinoyl-1-deoxypodophyllotoxin]	88.2 nM	–	–	–
COc1cc(C2c3cc4c(cc3CC3COC(=O)C32)OCO4)cc(OC)c1OC(=O)CC(C)C (stereo not shown) [Compound 1c-6, 4′-demethyl-4′-O-(3′-methylbutanoyl)-1-deoxypodophyllotoxin]	–	0.006 mg/mL	0.089 mg/mL	–
CCCCCCCC/C=C\CCCCCCCCCC(=O)Oc1c(OC)cc(C2c3cc4c(cc3CC3COC(=O)C32)OCO4)cc1OC (stereo not drawn) [Compound 1c-25, 4′-demethyl-4′-O-(cis-11′-eicosenoyl)-1-deoxypodophyllotoxin]	–	>5 mg/mL	>5 mg/mL	–
CCCCCCCCCCCCCCCCCCCC(=O)Oc1c(OC)cc(C2c3cc4c(cc3CC3COC(=O)C32)OCO4)cc1OC (stereo not shown) [Compound 1c-24, 4′-demethyl-4′-O-eicosanoyl-1-deoxypodophyllotoxin]	–	>5 mg/mL	>5 mg/mL	–
COc1cc(C2c3cc4c(cc3CC3COC(=O)C32)OCO4)cc(OC)c1OC(=O)NCc1ccccc1 (stereo not shown) [Compound 1b-14, 4′-demethyl-4′-O-benzylcarbamoyl-1-deoxypodophyllotoxin]	72 nM	–	–	cytotoxicity compared with DPT (A549 cell): stronger cytotoxicity than DPT
CCCCCC/C=C\CCCCCCCC(=O)Oc1c(OC)cc(C2c3cc4c(cc3CC3COC(=O)C32)OCO4)cc1OC (stereo not drawn) [Compound 1c-14, 4′-demethyl-4′-O-(cis-9′-hexadecenoyl)-1-deoxypodophyllo-toxin]	–	0.733 mg/mL	0.065 mg/mL	–
CCCCCCCCCCCCCC(=O)Oc1c(OC)cc(C2c3cc4c(cc3CC3COC(=O)C32)OCO4)cc1OC (stereo not shown) [Compound 1c-12, 4′-demethyl-4′-O-tetradecanoyl-1-deoxypodophyllotoxin]	–	0.041 mg/mL	0.050 mg/mL	–
CCCCCC/C=C\CCCCCCCCCC(=O)Oc1c(OC)cc(C2c3cc4c(cc3CC3COC(=O)C32)OCO4)cc1OC (stereo not drawn) [Compound 1c-18, 4′-demethyl-4′-O-(cis-11′-octadecenoyl)-1-deoxypodophyllo-toxin]	–	0.335 mg/mL	0.057 mg/mL	–
CCCCCCCC/C=C\CCCCCCCC(=O)Oc1c(OC)cc(C2c3cc4c(cc3CC3COC(=O)C32)OCO4)cc1OC (stereo not drawn) [Compound 1c-16, 4′-demethyl-4′-O-(cis-9′-octadecenoyl)-1-deoxypodophyllo-toxin]	–	0.179 mg/mL	0.159 mg/mL	–
CCC(=O)Oc1c(OC)cc(C2c3cc4c(cc3CC3COC(=O)C32)OCO4)cc1OC (stereo not shown) [Compound 1c-4, 4′-demethyl-4′-O-propanoyl-1-deoxypodophyllotoxin]	–	0.004 mg/mL	0.010 mg/mL	–

SMILES	EC50 (A549 cell; [1])	ED50(mg/mL) for A549 (A549 cell; A549, SRB, 48 hours incubation)	ED50(mg/mL) for SK-MEL-2 (SK-MEL-2 cell)	other results
COc1cc(C2c3cc4c(cc3CC3COC(=O)C32)OCO4)cc(OC)c1OC(=O)CCCCCCC(=O)O (stereo not shown) [Compound 1c-34, 4′-demethyl-4′-O-(7′-carboxy-heptanoyl)-1-deoxypodophyllotoxin]	–	0.175 mg/mL	0.066 mg/mL	–
COc1cc(C2c3cc4c(cc3CC3COC(=O)C32)OCO4)cc(OC)c1OC(=O)[C@@H](N)Cc1ccc(O)cc1 (stereo partly shown) [Compound 1a-9, 4′-demethyl-4′-O-tyrosinoyl-1-deoxypodophyllotoxin]	104 nM	–	–	–
COc1ccc(NC(=O)Oc2c(OC)cc(C3c4cc5c(cc4CC4COC(=O)C43)OCO5)cc2OC)cc1 (stereo not shown) [Compound 1b-10, 4′-demethyl-4′-O-(4-methoxyphenylcarbamoyl)-1-deoxypodophyllotoxin]	95.6 nM	–	–	–
COc1cc(C2c3cc4c(cc3CC3COC(=O)C32)OCO4)cc(OC)c1OC(=O)Cc1ccc(N(C)C)cc1 (stereo not shown) [Compound 1c-2, 4′-demethyl-4′-O-(4-dimethylaminophenylacetyl)-1-deoxypodophyllotoxin]	–	–	–	EC50 (A549 cell; [2]): 106 nM
COc1cc(C2c3cc4c(cc3CC3COC(=O)C32)OCO4)cc(OC)c1OC(=O)Nc1ccc(C)cc1 (stereo not shown) [Compound 1b-11, 4′-demethyl-4′-O-(4-methylphenylcarbamoyl)-1-deoxypodophyllotoxin]	99.3 nM	–	–	–
COc1cc(C2c3cc4c(cc3CC3COC(=O)C32)OCO4)cc(OC)c1OC(=O)Nc1ccc(SC)cc1 (stereo not shown) [Compound 1b-12, 4′-demethyl-4′-O-(4-methylthiophenylcarbamoyl)-1-deoxypodophyllotoxin]	106 nM	–	–	–
COc1cc(C2c3cc4c(cc3CC3COC(=O)C32)OCO4)cc(OC)c1OC(=O)[C@H](C)N (stereo partly shown) [Compound 1a-1, 4′-demethyl-4′-O-alanoyl-1-deoxypodophyllotoxin]	21.9 nM	–	–	cytotoxicity compared with DPT (A549 cell): stronger cytotoxicity than DPT
COc1cc(C2c3cc4c(cc3CC3COC(=O)C32)OCO4)cc(OC)c1OC(=O)C(N)Cc1ccccc1 (stereo not shown) [Compound 1a-7, 4′-demethyl-4′-O-phenylalanoyl-1-deoxypodophyllotoxin]	86.6 nM	–	–	–
COc1cc(C2c3cc4c(cc3CC3COC(=O)C32)OCO4)cc(OC)c1OC(=O)Cc1ccc(N)cc1 (stereo not shown) [Compound 1a-16, 4′-demethyl-4′-O-(4-aminophenylacetyl)-1-deoxypodophyllotoxin]	114 nM	–	–	–
COc1cc(C2c3cc4c(cc3CC3COC(=O)C32)OCO4)cc(OC)c1OC(=O)NC(=O)c1ccccc1 (stereo not shown) [Compound 1b-15, 4′-demethyl-4′-O-benzoylcarbamoyl-1-deoxypodophyllotoxin]	77 nM	–	–	–
COc1ccccc1NC(=O)Oc1c(OC)cc(C2c3cc4c(cc3CC3COC(=O)C32)OCO4)cc1OC (stereo not shown) [Compound 1b-13, 4′-demethyl-4′-O-(2-methoxyphenylcarbamoyl)-1-deoxypodophyllotoxin]	66.2 nM	–	–	cytotoxicity compared with DPT (A549 cell): stronger cytotoxicity than DPT
COc1cc(C2c3cc4c(cc3CC3COC(=O)C32)OCO4)cc(OC)c1OC(=O)Nc1ccc(F)cc1 (stereo not shown) [Compound 1b-9, 4′-demethyl-4′-O-(4-fluorophenylcarbamoyl)-1-deoxypodophyllo-toxin]	86.3 nM	–	–	–
COc1cc(C2c3cc4c(cc3CC3COC(=O)C32)OCO4)cc(OC)c1OC(=O)NS(=O)(=O)c1ccccc1 (stereo not shown) [Compound 1b-16, 4′-demethyl-4′-O-benzenesulfonylcarbamoyl-1-deoxypodophyllo-toxin]	50.6 nM	–	–	cytotoxicity compared with DPT (A549 cell): stronger cytotoxicity than DPT
COc1cc(C=CC(=O)Oc2c(OC)cc(C3c4cc5c(cc4CC4COC(=O)C43)OCO5)cc2OC)cc(OC)c1OC (stereo not shown) [Compound 1c-1, 4′-demethyl-4′-O-(3,4,5-trimethoxyphenylcinnamoyl)-1-deoxypodophyllotoxin]	–	–	–	EC50 (A549 cell; [2]): 108 nM
COc1cc(C2c3cc4c(cc3CC3COC(=O)C32)OCO4)cc(OC)c1OC(=O)Nc1ccccc1 (stereo not shown) [Compound 1b-8, 4′-demethyl-4′-O-phenylcarbamoyl-1-deoxypodophyllotoxin]	177 nM	–	–	–
